From BindingDB's records for patent US12227501 (Bayer Aktiengesellschaft, 2025)

Key:
[1] = biological target: T1, Casein kinase I isoform alpha (Homo sapiens, UniProt P48729); test: CSNK1A1 Assay 1
Protocol: Inhibitory activity of compounds of the present invention in presence of 1 μM adenosine-tri-phosphate (ATP) was quantified employing the CSNK1A1 assay as described in the following paragraphs. In essence, the enzyme activity is measured by quantification of the adenosine-di-phosphate (ADP), which is generated as a co-product of the enzyme reaction, via the “ADP-Glo™ Kinase Assay” kit from the company Promega. This detection system works as follows: In a first step the ATP not consumed in the kinase reaction is quantitatively converted to cAMP employing an adenylate cyclase (“ADP-Glo-reagent”), then the adenylate cyclase is stopped and the ADP generated in the kinase reaction converted to ATP which generates in a luciferase-based reaction a glow-luminescence signal (“Kinase Detection Reagent”). Recombinant fusion protein of N-terminal Glutathion-S-Transferase (GST) and full-length human CSNK1A1, expressed by baculovirus infected insect cells and purified via Glutathion affinity chromatography, was purchased from Life Technologies (product no. PV4174) and used as enzyme. As substrate for the kinase reaction the biotinylated peptide Btn-Ahx-[…] (C-terminus in amide form) was used which can be purchased e.g. from the company Biosyntan (Berlin-Buch, Germany).

[2] = biological target: T2, Epidermal growth factor receptor [669-1210] (UniProt P00533); test: WT-EGFR Kinase Assay
T2 construct: 669-1210
T2 sequence (P00533 669-1210): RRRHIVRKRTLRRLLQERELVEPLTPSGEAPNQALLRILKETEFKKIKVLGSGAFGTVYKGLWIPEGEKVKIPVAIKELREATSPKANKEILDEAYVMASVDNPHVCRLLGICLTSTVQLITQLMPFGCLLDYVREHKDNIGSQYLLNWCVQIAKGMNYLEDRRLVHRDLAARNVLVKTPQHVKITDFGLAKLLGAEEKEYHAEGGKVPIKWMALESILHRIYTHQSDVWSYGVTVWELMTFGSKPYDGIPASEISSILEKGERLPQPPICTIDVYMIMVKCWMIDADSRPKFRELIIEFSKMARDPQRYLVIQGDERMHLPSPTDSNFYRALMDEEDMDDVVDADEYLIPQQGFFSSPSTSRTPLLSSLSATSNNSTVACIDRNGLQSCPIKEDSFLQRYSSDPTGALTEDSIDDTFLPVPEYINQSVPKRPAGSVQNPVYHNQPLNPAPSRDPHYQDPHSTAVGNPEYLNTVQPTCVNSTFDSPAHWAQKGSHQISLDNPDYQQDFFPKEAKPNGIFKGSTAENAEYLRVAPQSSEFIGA
Protocol: For the assay 50 nl of a 100 fold concentrated solution of the test compound in DMSO was pipetted into either a black low volume 384 well microtiter plate or a black 1536 well microtiter plate (both Greiner Bio-One, Frickenhausen, Germany), 2 μL of a solution of EGFR in aqueous assay buffer [50 mM Hepes pH 7.0, 10 mM MgCl2, 1 mM dithiothreitol, 0.5 mM EGTA, 0.3 mM activated sodium ortho-vanadate, 0.005% (w/v) bovine serum albumin, 0.005% (v/v) Tween-20] were added and the mixture was incubated for 15 min at 22° C. to allow pre-binding of the test compounds to the enzyme before the start of the kinase reaction. […] The concentration of EGFR was adjusted depending of the activity of the enzyme lot and was chosen appropriate to have the assay in the linear range, typical concentration was 7.6 pg/μL. […] Subsequently the amount of phosphorylated substrate was evaluated by measurement of the resonance energy transfer from the PT66-Tb-Cryptate to the streptavidine-XL665.

[3] = biological target: T1, Casein kinase I isoform alpha; test: CSNK1A1 Assay 2
Protocol: For the assay 50 nl of a 100 fold concentrated solution of the test compound in DMSO was pipetted into a white 1536-well microtiter plate (Greiner Bio-One, Frickenhausen, Germany), 2 μL of a solution of CSNK1A1 in aqueous assay buffer [50 mM HEPES pH 7.5, 10% (v/v) glycerol, 10 mM MgCl2, 50 mM NaCl, 1 mM dithiothreitol, 0.01% (w/v) bovine serum albumin, 0.01% (v/v) Triton X-100] were added and the mixture was incubated for 15 min at 22° C. to allow pre-binding of the test compounds to the enzyme before the start of the kinase reaction. […] The concentration of CSNK1A1 was adjusted depending of the activity of the enzyme lot and was chosen appropriate to have the assay in the linear range, a typical concentrations are about 0.0375 ng/μL. The reaction was stopped by the addition of 2.5 μL of “ADP-Glo-reagent” (1:1.5 fold diluted with water) and the resulting mixture was incubated at 22° C. for 1 h to convert the ATP not consumed in the kinase reaction completely […]. Subsequently 2.5 μL of the “kinase detection reagent” (1.2 fold more concentrated than recommended by the producer) were added, the resulting mixture was incubated at 22° C. for 1 h and then the luminescence measured with a suitable measurement instrument (e.g. Viewlux™ from Perkin-Elmer).

[4] = biological target: Casein kinase I isoform delta (Homo sapiens, UniProt P48730); test: CSNK1D Assay
Sequence of Casein kinase I isoform delta (P48730 whole entry, canonical isoform): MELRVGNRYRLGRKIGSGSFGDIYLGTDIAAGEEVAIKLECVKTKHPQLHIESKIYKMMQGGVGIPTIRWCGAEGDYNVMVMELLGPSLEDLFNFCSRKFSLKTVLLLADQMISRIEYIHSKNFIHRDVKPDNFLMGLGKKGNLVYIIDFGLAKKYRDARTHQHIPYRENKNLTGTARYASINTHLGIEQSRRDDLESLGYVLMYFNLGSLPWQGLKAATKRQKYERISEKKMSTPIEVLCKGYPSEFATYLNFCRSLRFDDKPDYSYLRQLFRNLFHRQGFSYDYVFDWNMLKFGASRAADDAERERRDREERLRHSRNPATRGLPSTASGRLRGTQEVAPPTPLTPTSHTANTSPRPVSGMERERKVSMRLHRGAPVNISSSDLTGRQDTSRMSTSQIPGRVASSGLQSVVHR
Protocol: For the assay 50 nl of a 100 fold concentrated solution of the test compound in DMSO was pipetted into a white 1536-well microtiter plate (Greiner Bio-One, Frickenhausen, Germany), 2 μL of a solution of CSNK1D in aqueous assay buffer [50 mM HEPES pH 7.5, 10% (v/v) glycerol, 10 mM MgCl2, 50 mM NaCl, 1 mM dithiothreitol, 0.01% (w/v) bovine serum albumin, 0.01% (v/v) Triton X-100] were added and the mixture was incubated for 15 min at 22° C. to allow pre-binding of the test compounds to the enzyme before the start of the kinase reaction. […] The concentration of CSNK1 D was adjusted depending of the activity of the enzyme lot and was chosen appropriate to have the assay in the linear range, a typical concentration is about 0.5 ng/μL. The reaction was stopped by the addition of 2.5 μL of “ADP-Glo-reagent” (1:1.5 fold diluted with water) and the resulting mixture was incubated at 22° C. for 1 h to convert the ATP not consumed in the kinase reaction completely […]. Subsequently 2.5 μL of the “kinase detection reagent” (1.2 fold more concentrated than recommended by the producer) were added, the resulting mixture was incubated at 22° C. for 1 h and then the luminescence measured with a suitable measurement instrument (e.g. Viewlux™ from Perkin-Elmer). The amount of emitted light was taken as a measure for the amount of ADP generated and thereby for the activity of the CSNK1D.

[5] = biological target: T1, Casein kinase I isoform alpha; test: CSNK1A1 High ATP Assay
Protocol: For the assay 50 nl of a 100 fold concentrated solution of the test compound in DMSO was pipetted into a white low volume 384-well microtiter plate (Greiner Bio-One, Frickenhausen, Germany), 2 μL of a solution of CSNK1A1 in aqueous assay buffer [50 mM HEPES pH 7.5, 10% (v/v) glycerol, 10 mM MgCl2, 50 mM NaCl, 1 mM dithiothreitol, 0.01% (w/v) bovine serum albumin, 0.01% (v/v) Triton X-100] were added and the mixture was incubated for 15 min at 22° C. to allow pre-binding of the test compounds to the enzyme before the start of the kinase reaction. […] The concentration of CSNK1A1 was adjusted depending of the activity of the enzyme lot and was chosen appropriate to have the assay in the linear range, a typical concentration is about 0.4 ng/μL. The reaction was stopped by the addition of 2.5 μL of “ADP-Glo-reagent” (1:1.5 fold diluted with water) and the resulting mixture was incubated at 22° C. for 1 h to convert the ATP not consumed in the kinase reaction completely […]. Subsequently 2.5 μL of the “kinase detection reagent” (1.2 fold more concentrated than recommended by the producer) were added, the resulting mixture was incubated at 22° C. for 1 h and then the luminescence measured with a suitable measurement instrument (e.g. Viewlux™ from Perkin-Elmer). The amount of emitted light was taken as a measure for the amount of ADP generated and thereby for the activity of the CSNK1A1.

T1 sequence (P48729 whole entry, canonical isoform): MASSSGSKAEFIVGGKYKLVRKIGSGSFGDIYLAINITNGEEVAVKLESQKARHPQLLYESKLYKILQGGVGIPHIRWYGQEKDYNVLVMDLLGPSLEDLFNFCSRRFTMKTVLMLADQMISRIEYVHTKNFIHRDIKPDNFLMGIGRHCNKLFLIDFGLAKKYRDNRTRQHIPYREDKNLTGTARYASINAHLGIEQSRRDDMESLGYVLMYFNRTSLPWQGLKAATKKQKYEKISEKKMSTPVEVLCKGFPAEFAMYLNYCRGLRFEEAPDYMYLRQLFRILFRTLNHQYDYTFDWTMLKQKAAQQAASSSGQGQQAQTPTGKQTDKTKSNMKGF

| SMILES | IC50 [1] | IC50 [2] | IC50 [3] | IC50 [4] | IC50 [5] |
| --- | --- | --- | --- | --- | --- |
| CN1CCc2[nH]c(-c3ccnc(NC(=O)[C@@H]4C[C@@H]4F)c3)c(Nc3ccccc3)c2C1=O [US10428063, Example 40] | 24.1 nM | 85.5 nM | – | – | – |
| CC1(C)Cc2[nH]c(-c3ccnc(NC(=O)Cc4ccc(F)cc4)c3)c(Nc3ccccc3)c2C(=O)N1 [US12227501, Example 22] | – | 815 nM | 4.23 nM | 11.9 nM | 54.7 nM |
| CC(C(=O)Nc1cc(-c2[nH]c3c(c2Nc2ccccc2F)C(=O)N(C)CC3)ccn1)c1ccc(F)cc1 (stereo not drawn) [US12227501, Example 29] | – | – | 3.19 nM | – | 138 nM |
| O=C(Cc1ccc(F)cc1)Nc1cc(-c2[nH]c3c(c2Nc2ccccc2)C(=O)N(CC(F)(F)F)CC3)ccn1 [US12227501, Example 36] | – | > 20000 nM | 11.3 nM | – | 1080 nM |
| CC(C(=O)Nc1cc(-c2[nH]c3c(c2Nc2ccccc2)C(=O)N(CC(F)(F)F)CC3)ccn1)c1ccc(F)cc1 (stereo not drawn) [US12227501, Example 37] | – | > 20000 nM | 22.6 nM | – | > 1630 nM |
| Cc1cccc(CC(=O)Nc2cc(-c3[nH]c4c(c3Nc3ccccc3)C(=O)N(C)CC4)ccn2)c1 [US12227501, Example 70] | – | 2040 nM | 3.2 nM | 3.66 nM | 140 nM |
| Cc1ccccc1CC(=O)Nc1cc(-c2[nH]c3c(c2Nc2ccccc2)C(=O)N(C)CC3)ccn1 [US12227501, Example 71] | – | 7430 nM | 4.79 nM | 6.47 nM | 241 nM |
| Cc1ccccc1Nc1c(-c2ccnc(NC(=O)Cc3ccc(F)cc3)c2)[nH]c2c1C(=O)NC(C)(C)C2 [US12227501, Example 113] | – | – | 13.7 nM | 16.1 nM | 166 nM |
| CC1(C)Cc2[nH]c(-c3ccnc(NC(=O)Cc4ccc(F)cc4)c3)c(Nc3cccc(F)n3)c2C(=O)N1 [US12227501, Example 126] | – | – | 4.44 nM | 14.4 nM | 47.8 nM |
| CC1(C)Cc2[nH]c(-c3ccnc(NC(=O)Cc4ccc(F)cc4)c3)c(Nc3cccc(F)n3)c2C(=O)N1 [US12227501, Example 127] | – | > 20000 nM | 4.74 nM | – | 23.1 nM |
| Cc1c(F)cccc1Nc1c(-c2ccnc(NC(=O)Cc3ccc(F)cc3)c2)[nH]c2c1C(=O)NC(C)(C)C2 [US12227501, Example 131] | – | 1090 nM | 9.38 nM | 11.6 nM | 464 nM |
| Cc1ccccc1Nc1c(-c2ccnc(NC(=O)Cc3ccc(F)cc3)c2)[nH]c2c1C(=O)NC1(CCC1)C2 [US12227501, Example 142] | – | > 20000 nM | 5.1 nM | 9.35 nM | 12.3 nM |
| CN1C(=O)c2c([nH]c(-c3ccnc(NC(=O)Cc4ccc(F)cc4)c3)c2Nc2ccccc2)CC12CCC2 [US12227501, Example 156] | – | 6660 nM | 6.09 nM | 9.38 nM | 29.7 nM |
